Assay results taken from PMC6571685, “Rippled β-Sheet Formation by an Amyloid-β Fragment Indicates Expanded Scope of Sequence Space for Enantiomeric β-Sheet Peptide Coassembly” (Molecules, 2019).
Square brackets hold non-standard residues; d marks the D form. Peptide text beside a SMILES is read from it.

Columns and labels:
Type in all cases: physicochemical
[1] = Transmission electron microscopy of assemblies, fibril widths; settings: assembled 21 days in PBS pH 7.4, 5% DMSO, 37 °C, washed with water, uranyl acetate stain; ImageJ, averages from 100–150 measurements
Method: Dried, disaggregated peptide aliquots were prepared for assembly as in sedimentation assays, but in larger volumes (greater than or equal to 5 mL) and were allowed to assemble for 21 days so as to allow for complete assembly of all samples. Following assembly, samples were centrifuged at 4300 × g for 90 min at 17 °C to collect aggregates. The supernatant was then carefully removed and deionized water added, mixed, and centrifugation repeated to wash. After first wash, supernatant was again removed and deionized water added and mixed, at which point samples were spotted for TEM or SEM if desired (below). Centrifugation was repeated once more and supernatant removed, and then samples were frozen and lyophilized. Lyophilized pellets were then placed on the solid-state stage of a Shimadzu FTIR-8400S (Shimadzu Corporation, Nakagyo-ku, Kyoto, Japan) spectrometer and analyzed at a resolution of 4 cm^−1.
Fibrils for the TEM images reported were obtained from the same samples that were used for FTIR, above, at the same timepoint. […] TEM images were recorded on a Hitachi 7650 transmission electron microscope in high contrast mode with an accelerating voltage of 80 kV. Fibril widths were measured in ImageJ and are reported as averages from 100–150 measurements.

[2] = HPLC sedimentation assay (modified Wetzel protocol) of peptide self-assembly / coassembly
Method: (§1) The self-assembly of L- and D-Ac-KLVFFAE-NH2 peptides was compared to the assembly properties of an equimolar mixture of the enantiomers. The peptides were prepared via standard Fmoc solid phase peptide synthesis, purified by reverse-phase HPLC, and characterized by MALDI-TOF mass spectrometry (see Materials and Methods section for experimental details and Supplementary Materials for characterization and purity data). Prior to self-assembly, peptides were disaggregated by sequential treatment with trifluoroacetic acid and hexafluoroisopropanol using a modified Wetzel protocol; peptide concentrations were determined by comparison to standard analytical HPLC curves (see Supplementary Materials for details), as described previously for studies with Aβ(16–22). Disaggregated, lyophilized peptides were then dissolved in DMSO and diluted into phosphate-buffered saline (pH 7.4) to reach total peptide concentrations of 110 μM (55 μM of each L- and D-enantiomer for mixed coassembly studies) (final DMSO concentration was 5% v/v). Upon dilution, peptides were incubated at 37 °C for assembly.
Comparison of self-assembly and coassembly of Aβ(16–22) was conducted by a time-dependent sedimentation analysis. For these studies, we adapted Wetzel’s HPLC sedimentation protocol that we have previously used to assess Aβ(16–22) self-assembly. Aliquots of self-assembly and coassembly mixtures were removed over time and subjected to ultracentrifugation to remove fibrils and […] order aggregates after which the concentration of unaggregated peptide was quantified. In these analyses, equilibrium between monomer and fibril is eventually reached, with the final monomer concentration, or critical concentration (Cr), providing a quantitative characterization of the dynamic equilibrium between fibrils of length n and monomer with fibrils of length n + 1. […]
Sedimentation assays were performed using a modified Wetzel protocol. […] These solutions were then analyzed by analytical HPLC for correlation to a concentration curve to determine remaining monomer concentration.

[3] = Visual observation of precipitate after dilution into PBS; settings: 110 μM total peptide, DMSO stock diluted into PBS pH 7.4, 5% v/v DMSO
Method: as §1

Compound	width of assemblies (TEM) [1]	critical concentration (Cr), final monomer concentration at equilibrium ([2]; 110 μM total peptide (55 μM each enantiomer in mixture), PBS pH 7.4, 5% v/v DMSO, 0.1% NaN3, 37 °C, up to 21 days, aliquots centrifuged 436,000 × g 1 h 4 °C, supernatant monomer by analytical HPLC)	time to reach equilibrium (constant monomer concentration) ([2]; 110 μM total peptide, PBS pH 7.4, 5% DMSO, 37 °C, monomer by HPLC after ultracentrifugation)	ΔG for addition of monomer to fibril at equilibrium ([2]; from Cr = 1/Ka, PBS pH 7.4, 5% DMSO, 37 °C, 110 μM total peptide)	visible precipitate immediately after gentle mixing [3]
CC(=O)N[C@H](CCCCN)C(=O)N[C@H](CC(C)C)C(=O)N[C@@H](C(=O)N[C@H](Cc1ccccc1)C(=O)N[C@H](Cc1ccccc1)C(=O)N[C@H](C)C(=O)N[C@H](CCC(=O)O)C(N)=O)C(C)C [D-Aβ(16–22), D-Ac-KLVFFAE-NH2] (Ac-[dK][dL][dV][dF][dF][dA][dE]-NH2)	11.8 ± 0.5 nm				
CC(=O)N[C@@H](CCCCN)C(=O)N[C@@H](CC(C)C)C(=O)N[C@H](C(=O)N[C@@H](Cc1ccccc1)C(=O)N[C@@H](Cc1ccccc1)C(=O)N[C@@H](C)C(=O)N[C@@H](CCC(=O)O)C(N)=O)C(C)C [L-Aβ(16–22), Ac-KLVFFAE-NH2] (Ac-KLVFFAE-NH2)	11.8 ± 0.5 nm				
Ac-KLVFFAE-NH2 [single enantiomer Aβ(16–22), self-assembled single enantiomer Aβ(16–22) sample (L- or D-enantiomer alone), pleated β-sheet]		24 ± 6 µM	required over two weeks to reach a constant monomer concentration	-6.6 ± 0.2 kcal/mol	not in the single enantiomer self-assembly controls
